Legend:
Assay type in all cases: cell-based
Candida albicans = assay: Minimal inhibitory concentration, macrodilution method; details: yeast; 24 h, 30° C.
Source text: (§1) For the determination of the minimal inhibitory concentration (MIC) of nanosilver against different bacteria and fungi, i.e. the lowest concentration at which these micro-organisms show an inhibition of growth, the following protocol was used: • Journal of Antimicrobial Chemotherapy Supplement (JAC [2001] 48, Suppl. S1), March 2006, Chapter 2: Determination of minimal inhibitory concentrations; Macrodilution method.
(§2) Cultures of Staphylococcus aureus, Pseudomonas aeruginosa and Candida albicans were grown overnight and diluted to 150×10^6 bacterial cells or 5×10^6 yeast cells per mL (according to an optical density measured at 610 nm). These stock solutions were further diluted 500 times, […]. The final culture was then two times diluted in the final microtiter plate, resulting in a final dilution of 1:1000.
(§3) The test compound was diluted into the microtiter cultures at a concentration range from 0.5 to 470 mg/L Ag. The microtiter plates were then incubated at 30° C. on a shaker. After 24 h the plates were taken out of the incubation oven and growth was compared with the control row, both visually and by OD measurement at 610 nm.

Pseudomonas aeruginosa = assay: as above; details: Gram negative; 24 h, 30° C.
Source text: as §1, §2, §3

Staphylococcus aureus = assay: as above; details: Gram positive; 24 h, 30° C.
Source text: as §1, §2, §3

Aspergillus niger = assay: Minimal inhibitory concentration, spore culture; details: mold

Structure (SMILES): O=[N+]([O-])[O-].[Ag+] [silver nitrate]
- Minimal Inhibitory Concentration (MIC) Candida albicans (Candida albicans): 12.5 mg Ag/L
- Minimal Inhibitory Concentration (MIC) Pseudomonas aeruginosa (Pseudomonas aeruginosa): 6.3 mg Ag/L
- Minimal Inhibitory Concentration (MIC) staphylococcus aureus (Staphylococcus aureus): 12.5 mg Ag/L
- Minimal Inhibitory Concentration (MIC) Aspergillus niger (Aspergillus niger): 25 mg Ag/L

Source: patent US8454986B2, “Silver nanoparticles with specific surface area and a method for producing them” (Janssen Pharmaceutica N.V., priority 2008, dated 2013)
